Where two headings read alike, the source gives them in different places. Each block holds one molecule with its values, some of them ahead of it.
Key:
rat primary hepatocytes = assay: Uptake of EZE and EZE-Ph by rat primary hepatocytes; format: in vitro ADME; conditions: 10 μM, 10 min
Experimental: Rat primary hepatocytes were isolated from male SD rats as previously described [34]. Fresh rat hepatocytes (120,000 per well) were cultured in Williams’ E medium (containing 0.1 μM dexamethasone, 5% fetal bovine serum, 1% penicillin G/streptomycin, 1% GlutaMAX-I, and 1% insulin–transferrin–selenium) on collagen I-coated 48-well plates. Rat hepatocytes cultured for 4 h under a carbogen atmosphere were directly used for uptake assays.
The hepatocytes were rinsed three times with HBSS (37 °C) and equilibrated in HBSS for 10 min. […] After 10 min of incubation, cells were quickly washed three times with ice-cold HBSS and then lysed by the addition of 300 μL of purified water. The protein content was measured using the BCA protein assay kit. EZE and EZE-Ph were analyzed by LC-MS/MS.
The rates of substrate uptake were normalized using the protein contents of cell lysates.

[1] = for Autosampler stability (4°C, 24 h), RE / Post-extraction stability (room temperature 3 h), RE / Freeze-thaw stability (−20°C, three cycles), RE / Short-term stability (room temperature 3 h), RE: n = 6; for stability in rat plasma under the test conditions: LQC and HQC samples, short-term, post-extraction, auto-sampler, three freeze/thaw cycles; for Freeze-thaw stability (−20°C, three cycles), RE / Short-term stability (room temperature 3 h), RE: rat plasma; for stability in blood: room temperature for 2 h
Experimental: The instrument parameters were as follows: ion spray voltage, −4500 V; source temperature, 550 °C; nebulizer gas, 60 psi; heater gas, 60 psi; and curtain gas, 40 psi. […] Data were acquired and processed with the Analyst 1.6.3 software (Applied Biosystems). The standard curve ranges were 1.00 to 1000 ng/mL for EZE, 3.00 to 3000 ng/mL for EZE-Ph, and 1.00 to 1000 ng/mL for EZE-Hy in plasma.
Summary of the stability of ezetimibe and its metabolites in rat plasma (n = 6).

MRP2 = biological target: T1, MRP2 (Homo sapiens, UniProt Q92887); assay: Transport study with MRP2-expressing membrane vesicles; format: in vitro ADME; conditions: 10 μM, 10 min
T1 construct: purchased GenoMembrane Co., Ltd. (Yokohama, Japan); host or cells: Sf9 insect cells
Experimental: (§1) Human MDR1-, MRP2-, and MRP3-expressing membrane vesicles isolated from Sf9 insect cells were sourced from GenoMembrane Co., Ltd. (Yokohama, Japan).
(§2) In transport studies, a modified rapid filtration technique was used according to the manufacturer’s protocol (GenoMembrane Co.). The uptake of test compounds (10 μM EZE or EZE-Ph) into membrane vesicles (100 μg protein/100 μL) was conducted with or without 4 mM ATP in the transport medium (50 μL, pH 7.4), which included 50 mM MOPS-Tris, 70 mM KCl, and 7.5 mM MgCl2. The vesicular transport was terminated after 10 min by adding 200 μL of ice-cold stop buffer containing 40 mM MOPS-Tris and 70 mM KCl. The stopped incubate was quickly transferred to a 96-well glass fiber filter plate (Millipore, MA, USA) and washed five times with ice-cold stop buffer. The EZE and EZE-Ph inside the vesicles were released by adding 200 μL of methanol–water (70:30, v/v) and analyzed by LC-MS/MS. The ATP-dependent transport was evaluated based on the ratio of transport with ATP to that without ATP.

UGTs = assay: Incubation of EZE with liver S9 fractions of control and CCl4-induced rats (glucuronidation); format: in vitro ADME, rat; conditions: 60 min
Experimental: One portion of the rat liver tissue was homogenized in a 5-fold volume of ice-cold phosphate buffer (including 250 mM sucrose, 10 mM Tris-HCl, and 1 mM EDTA-2Na, pH 7.4) and centrifugated at 9000 g for 20 min. After centrifugation, the supernatant was collected as the S9 fraction and stored at −80 °C.
To evaluate the effect of hepatic impairment on the hepatic metabolism of EZE, 0.3 μM, 3 μM, and 30 μM EZE were incubated with rat liver S9 fractions (2 mg of protein/mL) at 37 °C for 60 min in the Tris-HCl-buffered system (100 mM, pH 7.4), consisting of UDPGA (1 mM), MgCl2 (10 mM), and alamethicin (25 μg/mL). To investigate the effect of bile acids on the metabolism of EZE in the liver, 3 μM EZE was incubated with rat or human liver S9 fractions (2 mg of protein/mL) at 37 °C for 60 min in the Tris-HCl-buffered system with or without bile acids at 1, 10, and 100 μM. The total volume of the incubation system was 100 μL. The reactions were terminated by adding 100 μL of ice-cold acetonitrile. Samples were stored at −20 °C until analysis. EZE and EZE-Ph were detected by liquid chromatography with tandem mass spectrometry (LC-MS/MS).

MRP3 = biological target: T2, MRP3 (Homo sapiens, UniProt O15438); assay: Transport study with MRP3-expressing membrane vesicles; format: in vitro ADME; conditions: 10 μM, 10 min
T2 construct: purchased GenoMembrane Co., Ltd. (Yokohama, Japan); host or cells: Sf9 insect cells
Experimental: as §1, §2

[2] = Portal vein and femoral vein plasma pharmacokinetics after oral EZE; format: in vivo, rats; conditions: oral 10 mg/kg EZE; for AUC(0-t): Sprague-Dawley, rat, po, 10 mg/kg
Experimental: To investigate changes due to the first-pass metabolism and biliary excretion during liver disease, CCl4-induced rats (n = 5) and control rats (n = 5) were anesthetized and the hepatic portal and femoral veins were cannulated with PE-50 polyethylene tubing. EZE was orally administered to rats at 10 mg/kg. Blood samples were collected simultaneously from the hepatic portal and femoral veins before administration (0 h), at 5, 15, and 30 min, and at 1, 2, 4, 6, 8, 12, 24, and 48 h after administration. Plasma samples were harvested as previously described.
(§3) A 25.0 μL aliquot of each sample and 25.0 μL of internal standard (50.0 ng/mL EZE-d4) were mixed with 100 μL of acetonitrile. After the samples were vortexed and centrifugated at 2250 g for 15 min, the supernatants were used to measure EZE and its metabolites by LC-MS/MS.
(§4) WinNonlin version 6.1 (Pharsight Corp., Cary, NC, USA) was used to calculate the pharmacokinetic parameters in a non-compartmental model. Statistical comparisons between the two groups were evaluated using a Student’s two-tailed unpaired t-test or the nonparametric Mann–Whitney test in GraphPad Prism (version 8.0, GraphPad Software Inc, SanDiego, CA, USA). A value of p < 0.05 was considered significant. All data were presented as the mean ± S.D. (n ≥ 3).

[3] = Pharmacokinetics after intravenous or oral administration of 10 mg/kg EZE to control and CCl4-induced rats; format: in vivo; conditions: for AUC(0-t) / half-life / Cmax at 5 min / Cmax / Tmax: Sprague-Dawley, rat, plasma, 10 mg/kg; for Cmax at 5 min: read-out: Cmax (* plasma concentration at 5 min after intravenous injection)
Experimental: Animals were fasted for 12 h with free access to water before the experiments. EZE was administered orally (prepared in 0.5% carboxymethylcellulose sodium) or intravenously (dissolved in 10% dimethyl sulfoxide, 10% tween-80, and 80% sterile H2O) to CCl4-induced rats (n = 5) and control rats (n = 5) at 10 mg/kg. Blood samples were collected from the retro-orbital venous plexus before administration (0 h), at 5, 15, and 30 min, and at 1, 2, 4, 6, 8, 12, 24, and 48 h after administration in tubes containing EDTA-2K. Plasma samples were harvested by centrifugation at 11,600 g for 5 min at 4 °C and then stored at −80 °C until further analysis.
as §3, §4

MDR1 = biological target: T3, MDR1 (Homo sapiens, UniProt P08183); assay: Transport study with MDR1-expressing membrane vesicles; format: in vitro ADME; conditions: 10 μM, 10 min
T3 construct: purchased GenoMembrane Co., Ltd. (Yokohama, Japan); host or cells: Sf9 insect cells
Experimental: as §1, §2

[4] = LQC (EZE/EZE-Ph/EZE-Hy 3.00/9.00/3.00 ng/ml)
[5] = femoral vein plasma, CCl4-induced rats, read-out: AUC0–t in femoral vein plasma
[6] = femoral vein plasma, control rats, read-out: AUC0–t in femoral vein plasma
[7] = portal vein plasma, CCl4-induced rats, read-out: AUC0–t in portal vein plasma
[8] = portal vein plasma, control rats, read-out: AUC0–t in portal vein plasma
[9] = iv, i.v. 10 mg/kg EZE, CCl4-induced rats
[10] = iv, i.v. 10 mg/kg EZE, control rats
[11] = po, p.o. 10 mg/kg EZE, CCl4-induced rats
[12] = po, p.o. 10 mg/kg EZE, control rats
[13] = intravenous injection of 10 mg/kg EZE
[14] = oral administration of 10 mg/kg EZE

T1 sequence (Q92887 whole entry): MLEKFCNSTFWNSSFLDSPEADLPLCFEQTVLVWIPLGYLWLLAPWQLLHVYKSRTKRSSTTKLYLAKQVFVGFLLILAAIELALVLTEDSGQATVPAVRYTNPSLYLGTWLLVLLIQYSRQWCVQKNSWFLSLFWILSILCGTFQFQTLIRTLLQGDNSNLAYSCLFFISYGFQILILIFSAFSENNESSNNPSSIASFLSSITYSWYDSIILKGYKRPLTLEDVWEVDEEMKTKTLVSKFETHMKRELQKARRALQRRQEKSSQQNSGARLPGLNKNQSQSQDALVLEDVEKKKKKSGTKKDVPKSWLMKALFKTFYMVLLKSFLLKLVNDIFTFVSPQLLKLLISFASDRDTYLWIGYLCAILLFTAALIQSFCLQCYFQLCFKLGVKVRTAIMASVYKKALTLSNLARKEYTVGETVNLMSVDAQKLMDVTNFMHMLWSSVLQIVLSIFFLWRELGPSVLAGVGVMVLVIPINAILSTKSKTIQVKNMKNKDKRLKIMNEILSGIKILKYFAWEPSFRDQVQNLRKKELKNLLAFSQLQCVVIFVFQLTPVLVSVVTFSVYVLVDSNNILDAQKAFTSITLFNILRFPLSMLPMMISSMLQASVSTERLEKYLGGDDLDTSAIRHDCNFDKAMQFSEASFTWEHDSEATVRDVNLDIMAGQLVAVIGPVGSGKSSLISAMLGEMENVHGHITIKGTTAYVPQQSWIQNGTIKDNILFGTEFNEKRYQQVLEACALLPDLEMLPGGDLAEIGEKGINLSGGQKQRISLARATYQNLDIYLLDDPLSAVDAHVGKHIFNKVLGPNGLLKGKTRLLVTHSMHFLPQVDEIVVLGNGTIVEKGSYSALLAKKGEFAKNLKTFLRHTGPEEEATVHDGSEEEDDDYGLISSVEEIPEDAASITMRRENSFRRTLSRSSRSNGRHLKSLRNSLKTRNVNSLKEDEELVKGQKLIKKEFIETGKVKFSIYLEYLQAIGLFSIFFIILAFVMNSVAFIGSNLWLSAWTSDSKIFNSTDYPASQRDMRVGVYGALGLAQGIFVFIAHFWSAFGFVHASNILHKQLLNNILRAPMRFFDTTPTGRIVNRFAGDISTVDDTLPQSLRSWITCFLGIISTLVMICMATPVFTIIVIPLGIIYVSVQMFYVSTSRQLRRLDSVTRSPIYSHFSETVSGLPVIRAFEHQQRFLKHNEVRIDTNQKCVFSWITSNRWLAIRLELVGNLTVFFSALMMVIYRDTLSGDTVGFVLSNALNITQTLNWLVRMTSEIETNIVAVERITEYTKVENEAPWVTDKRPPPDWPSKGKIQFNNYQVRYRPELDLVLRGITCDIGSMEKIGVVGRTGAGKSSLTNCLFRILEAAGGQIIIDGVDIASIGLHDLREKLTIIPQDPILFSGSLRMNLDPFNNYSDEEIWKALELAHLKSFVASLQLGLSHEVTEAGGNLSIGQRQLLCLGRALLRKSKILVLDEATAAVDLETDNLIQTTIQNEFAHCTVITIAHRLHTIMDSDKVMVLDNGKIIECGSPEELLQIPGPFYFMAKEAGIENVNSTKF
T2 sequence (O15438 whole entry): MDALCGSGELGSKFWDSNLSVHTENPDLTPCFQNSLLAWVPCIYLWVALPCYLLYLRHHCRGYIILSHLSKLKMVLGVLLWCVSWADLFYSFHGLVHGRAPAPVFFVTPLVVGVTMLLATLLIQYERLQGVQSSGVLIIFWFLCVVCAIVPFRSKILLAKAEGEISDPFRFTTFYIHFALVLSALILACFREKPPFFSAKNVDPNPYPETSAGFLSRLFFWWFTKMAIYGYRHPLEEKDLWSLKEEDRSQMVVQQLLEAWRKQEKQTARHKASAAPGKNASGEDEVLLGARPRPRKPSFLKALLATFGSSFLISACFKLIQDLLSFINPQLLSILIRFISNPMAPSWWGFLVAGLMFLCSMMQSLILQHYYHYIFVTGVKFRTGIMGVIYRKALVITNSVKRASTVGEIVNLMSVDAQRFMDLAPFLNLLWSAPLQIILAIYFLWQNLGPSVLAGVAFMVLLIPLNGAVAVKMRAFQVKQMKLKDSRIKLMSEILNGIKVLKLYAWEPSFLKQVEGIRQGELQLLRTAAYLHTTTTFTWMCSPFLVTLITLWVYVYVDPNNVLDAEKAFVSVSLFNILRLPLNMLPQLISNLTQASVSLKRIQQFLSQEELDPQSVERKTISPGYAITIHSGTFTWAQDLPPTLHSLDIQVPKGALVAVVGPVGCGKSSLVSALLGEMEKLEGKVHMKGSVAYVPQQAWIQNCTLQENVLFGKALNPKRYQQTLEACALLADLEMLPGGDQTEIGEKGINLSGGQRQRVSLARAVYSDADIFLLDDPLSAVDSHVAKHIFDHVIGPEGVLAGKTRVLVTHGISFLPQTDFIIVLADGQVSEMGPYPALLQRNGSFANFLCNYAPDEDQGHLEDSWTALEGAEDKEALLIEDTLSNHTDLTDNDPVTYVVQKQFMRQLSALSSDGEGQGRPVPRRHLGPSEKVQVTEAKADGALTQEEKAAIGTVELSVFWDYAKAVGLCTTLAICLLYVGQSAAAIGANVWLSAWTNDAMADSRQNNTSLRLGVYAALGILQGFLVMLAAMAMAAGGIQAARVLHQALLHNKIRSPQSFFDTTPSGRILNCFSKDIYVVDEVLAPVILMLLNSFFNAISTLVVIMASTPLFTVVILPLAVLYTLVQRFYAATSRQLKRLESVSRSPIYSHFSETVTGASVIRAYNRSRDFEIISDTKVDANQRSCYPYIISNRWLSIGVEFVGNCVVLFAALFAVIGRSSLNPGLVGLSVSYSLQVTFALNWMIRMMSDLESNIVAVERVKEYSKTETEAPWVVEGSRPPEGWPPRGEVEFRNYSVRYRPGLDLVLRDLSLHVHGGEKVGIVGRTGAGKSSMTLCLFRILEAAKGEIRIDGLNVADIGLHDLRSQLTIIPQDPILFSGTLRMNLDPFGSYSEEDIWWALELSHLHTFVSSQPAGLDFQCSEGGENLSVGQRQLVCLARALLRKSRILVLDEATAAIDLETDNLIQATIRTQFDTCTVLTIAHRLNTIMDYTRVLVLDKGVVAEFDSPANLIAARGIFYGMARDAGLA
T3 sequence (P08183 whole entry): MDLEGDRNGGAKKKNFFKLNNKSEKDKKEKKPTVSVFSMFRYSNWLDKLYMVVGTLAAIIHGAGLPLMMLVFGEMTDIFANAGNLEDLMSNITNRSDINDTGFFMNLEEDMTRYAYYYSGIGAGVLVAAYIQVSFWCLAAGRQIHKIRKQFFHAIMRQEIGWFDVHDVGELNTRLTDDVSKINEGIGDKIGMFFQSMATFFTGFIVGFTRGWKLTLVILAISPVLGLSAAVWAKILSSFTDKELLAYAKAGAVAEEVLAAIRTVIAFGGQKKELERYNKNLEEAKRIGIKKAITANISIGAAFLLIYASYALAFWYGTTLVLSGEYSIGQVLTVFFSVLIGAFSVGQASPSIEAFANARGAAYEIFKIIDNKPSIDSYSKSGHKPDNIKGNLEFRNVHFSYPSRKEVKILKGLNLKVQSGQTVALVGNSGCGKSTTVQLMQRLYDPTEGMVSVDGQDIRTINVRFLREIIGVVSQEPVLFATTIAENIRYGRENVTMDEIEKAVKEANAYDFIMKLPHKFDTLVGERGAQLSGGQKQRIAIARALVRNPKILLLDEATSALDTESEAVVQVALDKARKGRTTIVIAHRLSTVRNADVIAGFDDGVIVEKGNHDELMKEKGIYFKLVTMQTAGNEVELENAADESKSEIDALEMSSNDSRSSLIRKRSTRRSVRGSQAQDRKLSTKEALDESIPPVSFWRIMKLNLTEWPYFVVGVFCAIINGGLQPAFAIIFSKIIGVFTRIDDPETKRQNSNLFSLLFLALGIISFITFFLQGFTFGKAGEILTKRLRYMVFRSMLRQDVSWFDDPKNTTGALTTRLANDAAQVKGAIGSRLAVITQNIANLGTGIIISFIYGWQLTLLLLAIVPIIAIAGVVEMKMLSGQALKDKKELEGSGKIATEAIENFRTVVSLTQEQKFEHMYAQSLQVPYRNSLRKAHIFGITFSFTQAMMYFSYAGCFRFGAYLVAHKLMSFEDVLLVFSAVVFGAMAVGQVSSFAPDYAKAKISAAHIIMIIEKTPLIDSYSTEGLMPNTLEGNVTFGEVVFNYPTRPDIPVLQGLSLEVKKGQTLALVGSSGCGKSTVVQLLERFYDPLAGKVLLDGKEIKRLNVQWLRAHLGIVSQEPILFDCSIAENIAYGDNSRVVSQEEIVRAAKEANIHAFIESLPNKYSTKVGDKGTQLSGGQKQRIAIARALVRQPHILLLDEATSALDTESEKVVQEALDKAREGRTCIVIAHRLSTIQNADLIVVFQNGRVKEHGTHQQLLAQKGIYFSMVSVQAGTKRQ

temperature dependence of uptake into isolated rat hepatocytes (rat primary hepatocytes; 37 °C vs 4 °C): independent of temperature | Autosampler stability (4°C, 24 h), RE ([1]; HQC (800/2400/800 ng/ml)): 3.9% | Post-extraction stability (room temperature 3 h), RE ([1]; HQC (800/2400/800 ng/ml)): 3.9% | Autosampler stability (4°C, 24 h), RE ([1]; LQC (3.00/9.00/3.00 ng/ml)): 0.6% | Post-extraction stability (room temperature 3 h), RE ([1]; LQC (3.00/9.00/3.00 ng/ml)): 0.7% | stability in rat plasma under the test conditions [1]: stable | Freeze-thaw stability (−20°C, three cycles), RE ([1]; HQC (800/2400/800 ng/ml)): 1.1% | Short-term stability (room temperature 3 h), RE ([1]; HQC (800/2400/800 ng/ml)): -5.6% | Freeze-thaw stability (−20°C, three cycles), RE ([1]; LQC (3.00/9.00/3.00 ng/ml)): -1.0% | Short-term stability (room temperature 3 h), RE [1, 4]: -11.2% | stability in blood [1]: stable | ATP-dependent transport via MRP2 membrane vesicles (MRP2): No significant ATP-dependent transport | increase of residue of EZE in CCl4-induced rats compared with control rats (UGTs; liver S9, 0.3 μM EZE): 4.15 fold | increase of residue of EZE in CCl4-induced rats compared with control rats (UGTs; liver S9, 3 μM EZE): 5.00 fold | increase of residue of EZE in CCl4-induced rats compared with control rats (UGTs; liver S9, 30 μM EZE): 1.40 fold | ATP-dependent transport via MRP3 membrane vesicles (MRP3): No significant ATP-dependent transport | AUC(0-t) [2, 5]: 191 ng·h/mL | AUC(0-t) [2, 6]: 56.2 ng·h/mL | AUC(0-t) [2, 7]: 352 ng·h/mL | AUC(0-t) [2, 8]: 1850 ng·h/mL | AUC0-t in portal vein, decrease in CCl4-induced rats compared with control rats [2]: 81.0% | AUC0–t portal vein plasma vs femoral vein plasma, fold higher ([2]; CCl4-induced rats): 1.84 fold | AUC0–t portal vein plasma vs femoral vein plasma, fold higher ([2]; control rats): 33.0 fold | time of second absorption peak ([2]; control rats): 9.5 h | AUC(0-t) [3, 9]: 4610 ± 781 ng·h/mL | half-life [3, 9]: 7.67 ± 3.08 h | Cmax at 5 min [3, 9]: 2950 ± 571 ng/mL | AUC(0-t) [3, 10]: 2180 ± 304 ng·h/mL | half-life [3, 10]: 6.76 ± 3.31 h | Cmax at 5 min [3, 10]: 1560 ± 361 ng/mL | AUC(0-t) [3, 11]: 189 ± 66 ng·h/mL | Cmax [3, 11]: 20.4 ± 8.1 ng/mL | Tmax [3, 11]: 5.2 ± 3.9 h | half-life [3, 11]: 12.3 ± 5.3 h | AUC(0-t) [3, 12]: 17 ± 10 ng·h/mL | Cmax [3, 12]: 2.63 ± 2.68 ng/mL | Tmax [3, 12]: 4.95 ± 4.84 h | half-life [3, 12]: 5.56 ± 3.78 h | AUC0–t, fold higher in CCl4-induced rats than in control rats [3, 13]: 2.1 fold | AUC0–t, fold higher in CCl4-induced rats than in control rats [3, 14]: 11.1 fold | share in plasma relative to the main circulating component EZE-Ph [3, 14]: 0.4% | ATP-dependent transport via MDR1 membrane vesicles (MDR1): No significant ATP-dependent transport
Structure (SMILES): O=C1[C@H](CC[C@H](O)c2ccc(F)cc2)[C@@H](c2ccc(O)cc2)N1c1ccc(F)cc1 [EZE, 1-(4-fluorophenyl)-3(R)-[3-(4-fluorophenyl)-3(S)-hydroxypropyl]-4(S)-(4-hydroxyphenyl)-2-azetidinone, reference compound]

uptake at 37 °C relative to that at 4 °C (rat primary hepatocytes; rat hepatocytes): 50.0 times | Autosampler stability (4°C, 24 h), RE ([1]; HQC (800/2400/800 ng/ml)): 6.0% | Post-extraction stability (room temperature 3 h), RE ([1]; HQC (800/2400/800 ng/ml)): 5.1% | Autosampler stability (4°C, 24 h), RE ([1]; LQC (3.00/9.00/3.00 ng/ml)): 5.3% | Post-extraction stability (room temperature 3 h), RE ([1]; LQC (3.00/9.00/3.00 ng/ml)): 8.8% | stability in rat plasma under the test conditions [1]: stable | Freeze-thaw stability (−20°C, three cycles), RE ([1]; HQC (800/2400/800 ng/ml)): -0.4% | Short-term stability (room temperature 3 h), RE ([1]; HQC (800/2400/800 ng/ml)): 0.3% | Freeze-thaw stability (−20°C, three cycles), RE ([1]; LQC (3.00/9.00/3.00 ng/ml)): 0.8% | Short-term stability (room temperature 3 h), RE [1, 4]: -1.9% | stability in blood [1]: stable | +ATP/-ATP ratio (MRP2; MRP2 vesicles): 65.5 | decrease of formation of EZE-Ph in CCl4-induced rats compared with control rats (UGTs; liver S9, 0.3 μM EZE): 8.80% | decrease of formation of EZE-Ph in CCl4-induced rats compared with control rats (UGTs; liver S9, 3 μM EZE): 12.7% | decrease of formation of EZE-Ph in CCl4-induced rats compared with control rats (UGTs; liver S9, 30 μM EZE): 27.4% | +ATP/-ATP ratio (MRP3; MRP3 vesicles): 5.71 | AUC(0-t) [2, 5]: 12500 ng·h/mL | AUC(0-t) [2, 6]: 2580 ng·h/mL | AUC(0-t) [2, 7]: 15900 ng·h/mL | AUC(0-t) [2, 8]: 14800 ng·h/mL | AUC0-t in femoral vein blood, fold increase in CCl4-induced rats vs control [2]: 4.83 fold | AUC0–t portal vein plasma vs femoral vein plasma, fold higher ([2]; CCl4-induced rats): 1.28 fold | AUC0–t portal vein plasma vs femoral vein plasma, fold higher ([2]; control rats): 5.75 fold | AUC(0-t) [3, 9]: 40400 ± 1810 ng·h/mL | Cmax [3, 9]: 6970 ± 807 ng/mL | Tmax [3, 9]: 0.45 ± 0.11 h | half-life [3, 9]: 9.58 ± 6.2 h | AUC(0-t) [3, 10]: 2470 ± 418 ng·h/mL | Cmax [3, 10]: 1050 ± 240 ng/mL | Tmax [3, 10]: 0.083 h | half-life [3, 10]: 8.96 ± 2.19 h | AUC(0-t) [3, 11]: 18300 ± 6990 ng·h/mL | Cmax [3, 11]: 1340 ± 585 ng/mL | Tmax [3, 11]: 3 ± 1.41 h | half-life [3, 11]: 8.98 ± 2.1 h | AUC(0-t) [3, 12]: 4170 ± 1140 ng·h/mL | Cmax [3, 12]: 276 ± 69 ng/mL | Tmax [3, 12]: 8.8 ± 4.6 h | half-life [3, 12]: 5.5 ± 0.36 h | AUC0–t, fold higher in CCl4-induced rats than in control rats [3, 13]: 16.4 fold | AUC0–t, fold higher than that of EZE-Hy [3, 13]: approximately 2.5 fold | AUC0–t, fold higher in CCl4-induced rats than in control rats [3, 14]: 4.4 fold | +ATP/-ATP ratio (MDR1; MDR1 vesicles): 5.64
Structure (SMILES): O=C(O)[C@H]1O[C@@H](Oc2ccc([C@@H]3[C@@H](CC[C@H](O)c4ccc(F)cc4)C(=O)N3c3ccc(F)cc3)cc2)[C@H](O)[C@@H](O)[C@@H]1O [EZE-Ph, ezetimibe phenoxy β-D-glucuronide]
